Data: patent US7186864B2, “Glucocorticoid mimetics, methods of making them, pharmaceutical compositions, and uses thereof” (Boehringer Ingelheim Pharmaceuticals, Inc., priority 2002, dated 2007)

Target: T1, human glucocorticoid receptor (GR) complex (Homo sapiens, UniProt P04150)
T1 construct: made in house; host or cells: insect expression system (baculovirus lysate)
T1 sequence (P04150 1-777): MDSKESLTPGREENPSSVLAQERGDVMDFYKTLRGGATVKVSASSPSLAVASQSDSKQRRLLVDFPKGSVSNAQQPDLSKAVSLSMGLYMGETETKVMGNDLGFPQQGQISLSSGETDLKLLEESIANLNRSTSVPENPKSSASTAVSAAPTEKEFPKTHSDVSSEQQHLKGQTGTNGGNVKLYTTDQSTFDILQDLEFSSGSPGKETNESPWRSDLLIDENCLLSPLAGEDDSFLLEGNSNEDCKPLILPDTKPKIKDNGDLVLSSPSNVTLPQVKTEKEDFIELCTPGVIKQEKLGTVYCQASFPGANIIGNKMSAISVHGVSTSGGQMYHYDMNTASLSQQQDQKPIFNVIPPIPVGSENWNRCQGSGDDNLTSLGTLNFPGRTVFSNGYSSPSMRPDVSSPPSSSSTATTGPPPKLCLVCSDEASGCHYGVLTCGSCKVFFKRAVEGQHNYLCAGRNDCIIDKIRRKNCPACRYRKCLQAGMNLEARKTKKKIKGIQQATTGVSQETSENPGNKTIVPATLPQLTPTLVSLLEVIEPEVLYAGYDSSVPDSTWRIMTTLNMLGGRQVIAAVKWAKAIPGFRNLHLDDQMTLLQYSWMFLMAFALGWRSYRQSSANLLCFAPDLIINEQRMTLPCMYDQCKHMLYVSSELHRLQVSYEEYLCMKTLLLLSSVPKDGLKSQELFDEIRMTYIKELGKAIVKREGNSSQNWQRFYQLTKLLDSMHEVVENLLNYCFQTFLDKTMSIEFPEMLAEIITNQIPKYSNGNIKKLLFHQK
Test: Glucocorticoid receptor competitive binding assay (fluorescence polarization, TAMRA-labeled dexamethasone probe)
Settings: qualitative statement, values not given
Experimental: Compounds of the invention were evaluated for binding to the steroid receptor by a fluorescence polarization competitive binding assay. Detailed descriptions for preparation of recombinant glucocorticoid receptor (GR) complex used in the assay is described in Goldrick et al., U.S. provisional application No. 60/291,877, filed May 18, 2001 (corresponding to Goldrick et al., U.S. nonprovisional application No. 10/151,133, filed May 20, 2002) both incorporated herein by reference in their entirety. Preparation of the tetramethyl rhodamine (TAMRA)-labeled dexamethasone probe was accomplished using a standard literature procedure (M. Pons et al., J. Steroid Biochem., 1985, 22, pp. 267–273).
A. Glucocorticoid Receptor Competitive Binding Assay
Step 1. Characterization of the Fluorescent Probe
The wavelengths for maximum excitation and emission of the fluorescent probe should first be measured. An example of such a probe is rhodamine (TAMRA)-labeled dexamethasone.
The affinity of the probe for the steroid receptor was then determined in a titration experiment. The fluorescence polarization value of the probe in assay buffer was measured on an SLM-8100 fluorometer using the excitation and emission maximum values described above. Aliquots of expression vector lysate were added and fluorescence polarization was measured after each addition until no further change in polarization value was observed. Non-linear least squares regression analysis was used to calculate the dissociation constant of the probe from the polarization values obtained for lysate binding to the probe.
Step 2. Screening for Inhibitors of Probe Binding
This assay uses fluorescence polarization (FP) to quantitate the ability of test compounds to compete with tetramethyl rhodamine (TAMRA)-labeled dexamethasone for binding to a human glucocorticoid receptor (GR) complex prepared from an insect expression system. The assay buffer was: 10 mM TES, 50 mM KCl, 20 mM Na2MoO4.2H2O, 1.5 mM EDTA, 0.04% w/v CHAPS, 10% v/v glycerol, 1 mM dithiothreitol, pH 7.4. Test compounds were dissolved to 1 mM in neat DMSO and then further diluted to 10× assay concentration in assay buffer supplemented with 10% v/v DMSO. Test compounds were serially diluted at 10× assay concentrations in 10% DMSO-containing buffer in 96-well polypropylene plates. Binding reaction mixtures were prepared in 96-well black Dynex microtiter plates by sequential addition of the following assay components to each well: 15 μL of 10× test compound solution, 85 μL of GR-containing baculovirus lysate diluted 1:170 in assay buffer, and 50 μL of 15 nM TAMRA-labeled dexamethasone. Positive controls were reaction mixtures containing no test compound; negative controls (blanks) were reaction mixtures containing 0.7 μM to 2 μM dexamethasone. The binding reactions were incubated for 1 hour at room temperature and then read for fluorescence polarization in the LJL Analyst set to 550 nm excitation and 580 nm emission, with the Rhodamine 561 dichroic mirror installed. IC50 values were determined by iterative non-linear curve fitting of the FP signal data to a 4-parameter logistic equation.

Activity in the GR binding assay, demonstrated activity:
COc1ccc(F)cc1C(C)(C)CC(N)(Cc1cc(C)cc(C)c1)C(F)(F)F (stereo not shown) [Compound 1, 1-(3,5-Dimethyl-benzyl)-3-(5-fluoro-2-methoxy-phenyl)-3-methyl-1-trifluoromethyl-butylamine]
COc1ccc(F)cc1C(C)(C)CC(N)(Cc1cc(Cl)cc(Cl)c1)C(F)(F)F (stereo not shown) [Compound 2, 1-(3,5-Dichloro-benzyl)-3-(5-fluoro-2-methoxy-phenyl)-3-methyl-1-trifluoromethyl-butylamine]
COc1ccc(F)cc1C(C)(C)CC(N)(Cc1ccc(Cl)c(Cl)c1)C(F)(F)F (stereo not shown) [Compound 3, 1-(3,4-Dichloro-benzyl)-3-(5-fluoro-2-methoxy-phenyl)-3-methyl-1-trifluoromethyl-butylamine]
COc1ccc(F)cc1C(C)(C)CC(N)(Cc1cc(C(F)(F)F)cc(Cl)c1F)C(F)(F)F (stereo not shown) [Compound 4, 1-(3-Chloro-2-fluoro-5-trifluoromethyl-benzyl)-3-(5-fluoro-2-methoxy-phenyl)-3-methyl-1-trifluoromethyl-butylamine]
COc1ccc(F)cc1C(C)(C)CC(N)(Cc1ccc(C#N)cc1Cl)C(F)(F)F (stereo not shown) [Compound 5, 4-[2-Amino-4-(5-fluoro-2-methoxy-phenyl)-4-methyl-2-trifluoromethyl-pentyl]-3-chloro-benzonitrile]
Cc1cc(C)cc(CC(N)(CC(C)(C)c2cc(F)ccc2O)C(F)(F)F)c1 (stereo not shown) [Compound 6, 2-[3-Amino-3-(3,5-dimethyl-benzyl)-4,4,4-trifluoro-1,1-dimethyl-butyl]-4-fluoro-phenol]
CC(C)(CC(N)(Cc1cc(Cl)cc(Cl)c1)C(F)(F)F)c1cc(F)ccc1O (stereo not shown) [Compound 7, 2-[3-Amino-3-(3,5-dichloro-benzyl)-4,4,4-trifluoro-1,1-dimethyl-butyl]-4-fluoro-phenol]
